According to patent US20250230155A1 (Vanderbilt University, priority 2021, published 2025):

Biological target: T1, human mAChR M4 (Homo sapiens, UniProt P08173)
T1 construct: expressed in transfected cells
T1 sequence (P08173 1-479): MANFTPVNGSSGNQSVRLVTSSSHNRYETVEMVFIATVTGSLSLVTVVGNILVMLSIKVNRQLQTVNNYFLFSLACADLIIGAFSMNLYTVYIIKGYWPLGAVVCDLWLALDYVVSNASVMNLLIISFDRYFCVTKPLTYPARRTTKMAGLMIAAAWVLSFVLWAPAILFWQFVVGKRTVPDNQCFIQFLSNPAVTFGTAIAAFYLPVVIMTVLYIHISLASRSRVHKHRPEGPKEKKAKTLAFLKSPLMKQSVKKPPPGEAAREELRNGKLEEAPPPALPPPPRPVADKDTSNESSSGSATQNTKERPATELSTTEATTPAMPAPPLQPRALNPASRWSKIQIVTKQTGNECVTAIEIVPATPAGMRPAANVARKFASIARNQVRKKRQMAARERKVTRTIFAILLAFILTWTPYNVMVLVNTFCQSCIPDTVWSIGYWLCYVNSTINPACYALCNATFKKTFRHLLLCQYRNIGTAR
Assay: mAChR M4 cell-based functional assay (calcium mobilization, CHO-K1 hM4-Gqi5 cells)
Conditions: for Emax at 30 µM: CHO-K1, % ACh maximum at 30 μM, human M4; for EC50: positive allosteric modulator activity, increase in the EC20 acetylcholine response, CHO-K1 hM4-Gqi5 cells, read-out: Human M4 EC50
Procedure, shortened: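 CHO-K1 cells stably expressing human M4 with chimeric Gqi5, loaded with Fluo-4 AM; compounds given as 11-point 1:3 curves and calcium flux read on FDSS at 1 Hz. Acetylcholine EC20 added at 144 s, EC80 at 230 s; agonist, PAM (EC20 potentiation) and antagonist (EC80 inhibition) EC50/Emax from four-parameter fits.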

SMILES	Emax at 30 µM [%]	EC50 [nM]
Cc1c(C#N)nnc(N2Cc3cc(C(F)(F)F)cnc3C(C)C2)c1C (stereo not shown) [Example 348, 4,5-dimethyl-6-(8-methyl-3-(trifluoromethyl)-7,8-dihydro-1,6-naphthyridin-6(5H)-yl)pyridazine-3-carbonitrile]	70	331
Cc1cc(C#N)nnc1N1CCc2ncc(N3CCC(C)n4nccc43)cc2C1 (stereo not shown) [Example 383, 5-methyl-6-(3-(7-methyl-6,7-dihydropyrazolo[1,5-a]pyrimidin-4(5H)-yl)-7,8-dihydro-1,6-naphthyridin-6(5H)-yl)pyridazine-3-carbonitrile]	97	171
Cc1cc(C#N)cnc1N1Cc2cc(N3CCOCC3)cnc2C(C)C1 (stereo not shown) [Example 405, 5-methyl-6-(8-methyl-3-morpholino-7,8-dihydro-1,6-naphthyridin-6(5H)-yl)nicotinonitrile]	83	415
Cc1cnccc1Nc1cnc2c(c1)CN(c1ncc(C#N)cc1C)CC2 [Example 620, 5-methyl-6-(3-((3-methylpyridin-4-yl)amino)-7,8-dihydro-1,6-naphthyridin-6(5H)-yl)nicotinonitrile]	96	72
Cc1c(C(=O)NCc2cccnc2)nnc(N2CCc3ncccc3C2)c1C [compound 136, 6-(7,8-dihydro-5H-1,6-naphthyridin-6-yl)-4,5-dimethyl-N-(3-pyridylmethyl)pyridazine-3-carboxamide]	88	1880
Cc1cnc2c(c1)CN(c1nnc(C(=O)NCc3cncs3)c(C)c1C)CC2 [Example 468, 4,5-dimethyl-6-(3-methyl-7,8-dihydro-1,6-naphthyridin-6(5H)-yl)-N-(thiazol-5-ylmethyl)pyridazine-3-carboxamide]	108	119
[2H]C1([2H])Cc2ncc(Nc3ccncc3C)cc2C([2H])([2H])N1c1nnc(C#N)c(C)c1C [Example 609, 4,5-dimethyl-6-(3-((3-methylpyridin-4-yl)amino)-7,8-dihydro-1,6-naphthyridin-6(5H)-yl-5,5,7,7-d4)pyridazine-3-carbonitrile]	56	753
Cc1cc(C(=O)NCc2cccnc2)cnc1N1CCc2ncc(-c3cn(C)nc3C)cc2C1 [Example 457, 6-(3-(1,3-dimethyl-1H-pyrazol-4-yl)-7,8-dihydro-1,6-naphthyridin-6(5H)-yl)-5-methyl-N-(pyridin-3-ylmethyl)nicotinamide]	85	576
Cc1cc(C#N)cnc1N1CCc2ncc(Oc3cccc(F)c3)cc2C1 [compound 181, 6-[3-(3-fluorophenoxy)-7,8-dihydro-5H-1,6-naphthyridin-6-yl]-5-methyl-pyridine-3-carbonitrile]	90	141
Cc1c(C#N)nnc(N2CCc3ncc(-c4cnn(CCN5CCOCC5)c4)cc3C2)c1C [Example 325, 4,5-dimethyl-6-(3-(1-(2-morpholinoethyl)-1H-pyrazol-4-yl)-7,8-dihydro-1,6-naphthyridin-6(5H)-yl)pyridazine-3-carbonitrile]	51	2950

More lines, in order of falling EC50, values ahead:

Emax at 30 µM [%]	EC50 [nM]	SMILES
80	2930	Cc1cc(C(=O)NCc2ccccc2)cnc1N1CCc2ncccc2C1 [compound 70, N-benzyl-6-(7,8-dihydro-5H-1,6-naphthyridin-6-yl)-5-methyl-pyridine-3-carboxamide]
57	2520	Cc1cc(C#N)cnc1N1CCc2ncc(OCCOc3ccccc3F)cc2C1 [Example 429, 6-(3-(2-(2-fluorophenoxy)ethoxy)-7,8-dihydro-1,6-naphthyridin-6(5H)-yl)-5-methylnicotinonitrile]
67	1630	Cc1cc(C(=O)NCc2ccncc2)cnc1N1CCc2ncccc2C1 [compound 61, 6-(7,8-dihydro-5H-1,6-naphthyridin-6-yl)-5-methyl-N-(4-pyridylmethyl)pyridine-3-carboxamide]
93	676	Cc1cc(C#N)nnc1N1CCc2ncc(C(F)(F)F)cc2C1 [Example 304, 5-methyl-6-(3-(trifluoromethyl)-7,8-dihydro-1,6-naphthyridin-6(5H)-yl)pyridazine-3-carbonitrile]
56	641	Cc1nn(C)cc1-c1cnc2c(c1)CN(c1nc(C(F)(F)F)nc(Cl)c1C)CC2 [compound 245, 6-(6-chloro-5-methyl-2-(trifluoromethyl)pyrimidin-4-yl)-3-(1,3-dimethyl-1/-pyrazol-4-yl)-5,6,7,8-tetrahydro-1,6-naphthyridine]
95	577	Cc1cc(C#N)cnc1N1CCc2ncc(C(C)(O)C(F)(F)F)cc2C1 (stereo not shown) [Example 426, 5-methyl-6-(3-(1,1,1-trifluoro-2-hydroxypropan-2-yl)-7,8-dihydro-1,6-naphthyridin-6(5H)-yl)nicotinonitrile]
96	482	Cc1cc(C(=O)NC2(c3cccnc3)CC2)nnc1N1CCc2ncc(CC(F)(F)F)cc2C1 [Example 585, 5-methyl-N-(1-(pyridin-3-yl)cyclopropyl)-6-(3-(2,2,2-trifluoroethyl)-7,8-dihydro-1,6-naphthyridin-6(5H)-yl)pyridazine-3-carboxamide]
90	389	Cc1cc(C#N)cnc1N1CCc2ncc(C3CCOC3)cc2C1 (stereo not shown) [Example 395, 5-methyl-6-(3-(tetrahydrofuran-3-yl)-7,8-dihydro-1,6-naphthyridin-6(5H)-yl)nicotinonitrile]
98	384	Cc1cc(C#N)nnc1N1CCc2ncc(N3CC(C)Cn4nccc43)cc2C1 (stereo not shown) [Example 381, 5-methyl-6-(3-(6-methyl-6,7-dihydropyrazolo[1,5-a]pyrimidin-4(5H)-yl)-7,8-dihydro-1,6-naphthyridin-6(5H)-yl)pyridazine-3-carbonitrile]
64	305	COc1cnc(Cl)c(-c2cnc3c(c2)CN(c2nnc(C#N)c(C)c2C)CC3)c1 [compound 52, 6-[3-(2-chloro-5-methoxy-3-pyridyl)-7,8-dihydro-5H-1,6-naphthyridin-6-yl]-4,5-dimethyl-pyridazine-3-carbonitrile]
49	258	Cc1cc(C#N)cnc1N1CCc2ncc(-c3ccnc(C#N)c3)cc2C1 [Example 336, 4-(6-(5-cyano-3-methylpyridin-2-yl)-5,6,7,8-tetrahydro-1,6-naphthyridin-3-yl)picolinonitrile]
93	199	Cc1cc(-c2cnc3c(c2)CN(c2nnc(C(=O)NCc4ccncc4)c(C)c2C)CC3)ccn1 [compound 189, 4,5-dimethyl-6-[3-(2-methyl-4-pyridyl)-7,8-dihydro-5H-1,6-naphthyridin-6-yl]-N-(4-pyridylmethyl)pyridazine-3-carboxamide]
115	25	COC1CN(C(=O)c2cc(C)c(N3CCc4ncc(N5CCCn6nccc65)cc4C3)nn2)C1 [Example 548, (6-(3-(6,7-dihydropyrazolo[1,5-a]pyrimidin-4(5H)-yl)-7,8-dihydro-1,6-naphthyridin-6(5H)-yl)-5-methylpyridazin-3-yl)(3-methoxyazetidin-1-yl)methanone]
